Patent US7247634B2, “Rifamycin derivatives effective against drug-resistant microbes” (Cumbre Pharmaceuticals Inc., priority 2004, dated 2007)
≈ marks a conversion by molar mass, not a printed value.

Experiments:
Type in all cases: cell-based
[1] = system: Staphylococcus aureus ATCC29213; assay: MIC, microbroth dilution (NCCLS); conditions: rifS strain, Cation-Adjusted Mueller-Hinton Broth, 37° C., read-out: Antimicrobial activity (MIC)
[2] = system: Staphylococcus aureus ATCC29213 rpoB^D417Y; assay: microbe, parasite or virus in culture; conditions: ATCC29213, read-out: Antimicrobial activity (MIC)
Protocol: (§1) Representative compounds were assayed for antimicrobial activity as follows: Minimum Inhibitory Concentrations (“MICs”) were determined by the microbroth dilution method as per NCCLS guidelines (National Committee for Clinical Laboratory Standards. 2000. Methods for dilution antimicrobial susceptibility tests for bacteria that grow aerobically, 5th ed. M7-A5. National Committee for Clinical Laboratory Standards, Wayne, Pa.), except that all growth incubations were conducted at 37° C. Bacterial cultures were tested in the following bacteriological media: S. aureus, S. epidermidis, and E. coli in Cation-Adjusted Mueller-Hinton Broth, S. pneumoniae in THY Broth supplemented with 1 mg/mL catalase under 5% CO2 atmosphere, S. pyogenes in THY Broth, E. faecalis in BHI Broth, H. influenzae in BHI Broth supplemented with 0.75 μL of 1 mg/mL NAD and 150 μL of 1 mg/ml hematin per 5 mL, and M. smegmatis in Middlebrook Broth plus ADC Enrichment.
(§2) S. aureus ATCC 29213 RpoB^H418Y is a rifampin-resistant strain with a mutation in RNA polymerase, the biological target of rifamycin antibiotics. […] S. aureus EN1252a gyrA^S84L grlA^S80F is a quinolone-resistant strain due to double mutations to DNA gyrase and topoisomerase IV, the two biological targets for quinolone antibiotics.

[3] = system: Staphylococcus aureus ATCC29213 rpoB^H418Y; assay: microbe, parasite or virus in culture; conditions: ATCC29213, read-out: Antimicrobial activity (MIC)
Protocol: as §1, §2

[4] = system: Staphylococcus aureus EN1252a gyrA^S84L grlA^S80F; assay: microbe, parasite or virus in culture; conditions: read-out: Antimicrobial activity (MIC)
Protocol: as §1, §2

[5] = system: Staphylococcus epidermidis ATCC12228; assay: MIC, microbroth dilution (NCCLS); conditions: rifS strain, Cation-Adjusted Mueller-Hinton Broth, 37° C., read-out: Antimicrobial activity (MIC)
[6] = system: Streptococcus pneumoniae ATCC6303; assay: MIC, microbroth dilution (NCCLS); conditions: rifS strain, THY Broth with 1 mg/mL catalase, 5% CO2, 37° C., read-out: Antimicrobial activity (MIC)
[7] = system: Streptococcus pyogenes ATCC19615; assay: MIC, microbroth dilution (NCCLS); conditions: rifS strain, THY Broth, 37° C., read-out: Antimicrobial activity (MIC)
[8] = system: Enterococcus faecalis ATCC29212; assay: MIC, microbroth dilution (NCCLS); conditions: rifS strain, BHI Broth, 37° C., read-out: Antimicrobial activity (MIC)
[9] = system: Haemophilus influenzae ATCC10211; assay: MIC, microbroth dilution (NCCLS); conditions: rifS strain, BHI Broth with NAD and hematin, 37° C., read-out: Antimicrobial activity (MIC)
[10] = system: Escherichia coli ATCC25922; assay: MIC, microbroth dilution (NCCLS); conditions: rifS strain, Cation-Adjusted Mueller-Hinton Broth, 37° C., read-out: Antimicrobial activity (MIC)
[11] = system: Mycobacterium smegmatis ATCC700084; assay: MIC, microbroth dilution (NCCLS); conditions: Mycolicibacterium smegmatis, rifS strain, Middlebrook Broth plus ADC Enrichment, 37° C., read-out: Antimicrobial activity (MIC)

Compound: COc1c(N2CCCC(NC(=O)C3CCN(C4=C5NC(=O)/C(C)=C\C=C\[C@H](C)[C@H](O)[C@@H](C)[C@@H](O)[C@@H](C)[C@H](OC(C)=O)[C@H](C)[C@@H](OC)/C=C/O[C@@]6(C)Oc7c(C)c(O)c(c(c7C6=O)C4=O)C5=O)CC3)C2)c(F)cc2c(=O)c(C(=O)O)cn(C3CC3)c12 (mixture of isomers) [Example 52]
- MIC [1]: 0.004 to 0.5 µg/mL (≈ 0.00339 to 0.424 µM)
- MIC [2]: 0.06 to 32 µg/mL (≈ 0.0508 to 27.1 µM)
- MIC [3]: 0.06 to 16 µg/mL (≈ 0.0508 to 13.6 µM)
- MIC [4]: 0.004 to 0.5 µg/mL (≈ 0.00339 to 0.424 µM)
- MIC [5]: 0.008 to 0.063 µg/mL (≈ 0.00678 to 0.0534 µM)
- MIC [6]: 0.008 to 0.125 µg/mL (≈ 0.00678 to 0.106 µM)
- MIC [7]: 0.008 to 0.063 µg/mL (≈ 0.00678 to 0.0534 µM)
- MIC [8]: 2 to 32 µg/mL (≈ 1.69 to 27.1 µM)
- MIC [9]: 0.125 to 2 µg/mL (≈ 0.106 to 1.69 µM)
- MIC [10]: 0.125 to 8 µg/mL (≈ 0.106 to 6.78 µM)
- MIC [11]: 0.5 to 64 µg/mL

Compound: CO[C@H]1/C=C/O[C@@]2(C)Oc3c(C)c(O)c4c(c3C2=O)C(=O)C(N2CCN(C3CCN(c5nc6c(cc5F)c(=O)c(C(=O)O)cn6-c5ccc(F)cc5F)C3)CC2)=C(NC(=O)/C(C)=C\C=C\[C@H](C)[C@H](O)[C@@H](C)[C@@H](O)[C@@H](C)[C@H](OC(C)=O)[C@@H]1C)C4=O (mixture of isomers) [Example 54]
- MIC [1]: 0.004 to 0.5 µg/mL (≈ 0.00343 to 0.428 µM)
- MIC [2]: 0.06 to 32 µg/mL (≈ 0.0514 to 27.4 µM)
- MIC [3]: 0.06 to 16 µg/mL (≈ 0.0514 to 13.7 µM)
- MIC [4]: 0.004 to 0.5 µg/mL (≈ 0.00343 to 0.428 µM)
- MIC [5]: 0.008 to 0.063 µg/mL (≈ 0.00685 to 0.054 µM)
- MIC [6]: 0.008 to 0.125 µg/mL (≈ 0.00685 to 0.107 µM)
- MIC [7]: 0.008 to 0.063 µg/mL (≈ 0.00685 to 0.054 µM)
- MIC [8]: 2 to 32 µg/mL (≈ 1.71 to 27.4 µM)
- MIC [9]: 0.125 to 2 µg/mL (≈ 0.107 to 1.71 µM)
- MIC [10]: 0.125 to 8 µg/mL (≈ 0.107 to 6.85 µM)
- MIC [11]: 0.5 to 64 µg/mL

Compound: COc1c(N2CCC(C3(N4CCN(C5=C6NC(=O)/C(C)=C\C=C\[C@H](C)[C@H](O)[C@@H](C)[C@@H](O)[C@@H](C)[C@H](OC(C)=O)[C@H](C)[C@@H](OC)/C=C/O[C@@]7(C)Oc8c(C)c(O)c(c(c8C7=O)C5=O)C6=O)CC4)CC3)C2)c(F)cc2c(=O)c(C(=O)O)cn(C3CC3)c12 (mixture of isomers) [Example 56, (R/S)-3-{4-[1-(3-Carboxy-1-cyclopropyl-6-fluoro-8-methoxy-4-oxo-1,4-dihydroquinoline-7-yl)-pyrrolidin-3-yl-cyclopropyl]-piperazin-1-yl}-rifamycin S]
- MIC [1]: 0.004 to 0.5 µg/mL (≈ 0.00344 to 0.429 µM)
- MIC [2]: 0.06 to 32 µg/mL (≈ 0.0515 to 27.5 µM)
- MIC [3]: 0.06 to 16 µg/mL (≈ 0.0515 to 13.7 µM)
- MIC [4]: 0.004 to 0.5 µg/mL (≈ 0.00344 to 0.429 µM)
- MIC [5]: 0.008 to 0.063 µg/mL (≈ 0.00687 to 0.0541 µM)
- MIC [6]: 0.008 to 0.125 µg/mL (≈ 0.00687 to 0.107 µM)
- MIC [7]: 0.008 to 0.063 µg/mL (≈ 0.00687 to 0.0541 µM)
- MIC [8]: 2 to 32 µg/mL (≈ 1.72 to 27.5 µM)
- MIC [9]: 0.125 to 2 µg/mL (≈ 0.107 to 1.72 µM)
- MIC [10]: 0.125 to 8 µg/mL (≈ 0.107 to 6.87 µM)
- MIC [11]: 0.5 to 64 µg/mL

Compound: CO[C@H]1/C=C/O[C@@]2(C)Oc3c(C)c(O)c4c(c3C2=O)C(=O)C(N2CCC(N(C)C3(C5CCN(c6nc7c(cc6F)c(=O)c(C(=O)O)cn7-c6ccc(F)cc6F)C5)CC3)CC2)=C(NC(=O)/C(C)=C\C=C\[C@H](C)[C@H](O)[C@@H](C)[C@@H](O)[C@@H](C)[C@H](OC(C)=O)[C@@H]1C)C4=O (mixture of isomers) [Example 58]
- MIC [1]: 0.004 to 0.5 µg/mL (≈ 0.00324 to 0.405 µM)
- MIC [2]: 0.06 to 32 µg/mL (≈ 0.0486 to 25.9 µM)
- MIC [3]: 0.06 to 16 µg/mL (≈ 0.0486 to 13 µM)
- MIC [4]: 0.004 to 0.5 µg/mL (≈ 0.00324 to 0.405 µM)
- MIC [5]: 0.008 to 0.063 µg/mL (≈ 0.00648 to 0.051 µM)
- MIC [6]: 0.008 to 0.125 µg/mL (≈ 0.00648 to 0.101 µM)
- MIC [7]: 0.008 to 0.063 µg/mL (≈ 0.00648 to 0.051 µM)
- MIC [8]: 2 to 32 µg/mL (≈ 1.62 to 25.9 µM)
- MIC [9]: 0.125 to 2 µg/mL (≈ 0.101 to 1.62 µM)
- MIC [10]: 0.125 to 8 µg/mL (≈ 0.101 to 6.48 µM)
- MIC [11]: 0.5 to 64 µg/mL

Compound: CON=C1CN(c2nc3c(cc2F)c(=O)c(C(=O)O)cn3C2CC2)CC1CNC1CCN(C2=C3NC(=O)/C(C)=C\C=C\[C@H](C)[C@H](O)[C@@H](C)[C@@H](O)[C@@H](C)[C@H](OC(C)=O)[C@H](C)[C@@H](OC)/C=C/O[C@@]4(C)Oc5c(C)c(O)c(c(c5C4=O)C2=O)C3=O)CC1 (mixture of isomers) [Example 59, (R/S)-3-{4-[1-(3-Carboxy-1-cyclopropyl-6-fluoro-4-oxo-1,4-dihydro-1-[1,8]naphthyridine-7-yl)-3-methoxyiminopyrrolidin-4-ylmethylamino]-piperidin-1-yl}rifamycin S]
- MIC [1]: 0.004 to 0.5 µg/mL (≈ 0.00343 to 0.429 µM)
- MIC [2]: 0.06 to 32 µg/mL (≈ 0.0514 to 27.4 µM)
- MIC [3]: 0.06 to 16 µg/mL (≈ 0.0514 to 13.7 µM)
- MIC [4]: 0.004 to 0.5 µg/mL (≈ 0.00343 to 0.429 µM)
- MIC [5]: 0.008 to 0.063 µg/mL (≈ 0.00686 to 0.054 µM)
- MIC [6]: 0.008 to 0.125 µg/mL (≈ 0.00686 to 0.107 µM)
- MIC [7]: 0.008 to 0.063 µg/mL (≈ 0.00686 to 0.054 µM)
- MIC [8]: 2 to 32 µg/mL (≈ 1.71 to 27.4 µM)
- MIC [9]: 0.125 to 2 µg/mL (≈ 0.107 to 1.71 µM)
- MIC [10]: 0.125 to 8 µg/mL (≈ 0.107 to 6.86 µM)
- MIC [11]: 0.5 to 64 µg/mL

Compound: CO[C@H]1/C=C/O[C@@]2(C)Oc3c(C)c(O)c4c(c3C2=O)C(=O)C(N2CCN(c3cc5c(cc3F)c(=O)c(C(=O)O)cn5C3CC3)CC2)=C(NC(=O)/C(C)=C\C=C\[C@H](C)[C@H](O)[C@@H](C)[C@@H](O)[C@@H](C)[C@H](OC(C)=O)[C@@H]1C)C4=O [Example 4, 3-[4-(3-Carboxy-1-cyclopropyl-6-fluoro-4-oxo-1,4-dihydroquinolin-7-yl)piperazin-1-yl]rifamycin S]
- MIC [1]: 0.004 to 0.5 µg/mL (≈ 0.0039 to 0.488 µM)
- MIC [2]: 0.06 to 32 µg/mL (≈ 0.0585 to 31.2 µM)
- MIC [3]: 0.06 to 16 µg/mL (≈ 0.0585 to 15.6 µM)
- MIC [4]: 0.004 to 0.5 µg/mL (≈ 0.0039 to 0.488 µM)
- MIC [5]: 0.008 to 0.063 µg/mL (≈ 0.0078 to 0.0615 µM)
- MIC [6]: 0.008 to 0.125 µg/mL (≈ 0.0078 to 0.122 µM)
- MIC [7]: 0.008 to 0.063 µg/mL (≈ 0.0078 to 0.0615 µM)
- MIC [8]: 2 to 32 µg/mL (≈ 1.95 to 31.2 µM)
- MIC [9]: 0.125 to 2 µg/mL (≈ 0.122 to 1.95 µM)
- MIC [10]: 0.125 to 8 µg/mL (≈ 0.122 to 7.8 µM)
- MIC [11]: 0.5 to 64 µg/mL
